Measurements published in ChEMBL document CHEMBL4396872, “Pharmacokinetics-Driven Optimization of 4(3 H)-Pyrimidinones as Phosphodiesterase Type 5 Inhibitors Leading to TPN171, a Clinical Candidate for the Treatment of Pulmonary Arterial Hypertension” (J Med Chem, 2019).
Activity calls are given as the source filed them. No cut-off for these calls is given here.

Columns and labels:
Homo sapiens = organism: Homo sapiens; assay: Selectivity ratio of IC50 for N-terminal GST-tagged human PDE6C to IC50 for N-terminal GST-tagged human PDE5A1
[1] = target: cGMP-specific 3',5'-cyclic phosphodiesterase (Homo sapiens, UniProt O76074); assay: Inhibition of N-terminal GST-tagged human PDE5A1 expressed in baculovirus infected sf9 cells using [3H]cGMP as substrate measured after 30 mins by scintillation proximity assay
Phosphodiesterase 1 = Phosphodiesterase 1 (Homo sapiens, UniProt P54750+Q01064+Q14123); assay: Inhibition of N-terminal GST-tagged human PDE1 expressed in baculovirus infected sf9 cells using [3H]cAMP as substrate measured after 30 mins by scintillation proximity assay
[2] = target: cGMP-dependent 3',5'-cyclic phosphodiesterase (Homo sapiens, UniProt O00408); assay: Inhibition of human PDE2A1 expressed in baculovirus infected sf9 cells using [3H]cAMP as substrate measured after 30 mins by scintillation proximity assay
Phosphodiesterase 3 = Phosphodiesterase 3 (Homo sapiens, UniProt Q14432+Q13370); assay: Inhibition of N-terminal GST-tagged human PDE3 expressed in baculovirus infected sf9 cells using [3H]cAMP as substrate measured after 30 mins by scintillation proximity assay
Phosphodiesterase 7 = Phosphodiesterase 7 (Homo sapiens, UniProt Q13946+Q9NP56); assay: Inhibition of N-terminal GST-tagged human PDE7 expressed in baculovirus infected sf9 cells using [3H]cAMP as substrate measured after 30 mins by scintillation proximity assay
[3] = target: High affinity cAMP-specific and IBMX-insensitive 3',5'-cyclic phosphodiesterase 8A (Homo sapiens, UniProt O60658); assay: Inhibition of N-terminal GST-tagged full length human PDE8A1 expressed in baculovirus infected sf9 cells using [3H]cAMP as substrate measured after 30 mins by scintillation proximity assay
[4] = target: High affinity cGMP-specific 3',5'-cyclic phosphodiesterase 9A (Homo sapiens, UniProt O76083); assay: Inhibition of N-terminal GST-tagged full length human PDE9A2 expressed in baculovirus infected sf9 cells using [3H]cGMP as substrate measured after 30 mins by scintillation proximity assay
[5] = target: cAMP and cAMP-inhibited cGMP 3',5'-cyclic phosphodiesterase 10A (Homo sapiens, UniProt Q9Y233); assay: Inhibition of N-terminal GST-tagged human PDE10A expressed in baculovirus infected sf9 cells using [3H]cAMP as substrate measured after 30 mins by scintillation proximity assay
[6] = Clearance in iv dosed rat; type: ADME, organism-based; conditions: in vivo
[7] = Volume of distribution at steady state in iv dosed rat; type: ADME, organism-based; conditions: in vivo
Rattus norvegicus [8] = assay: Antihypertensive activity in spontaneously hypertensive rat assessed as reduction in mean arterial pressure at 20 mg/kg administered via single gavage measured up to 24 hrs; type: functional, organism-based
[9] = Metabolic stability in human liver microsomes assessed as parent compound remaining at 1 uM in presence of NADPH after 30 mins by LC-MS/MS analysis; type: ADME, Microsome; conditions: read-out: Stability
[10] = Tmax in Sprague-Dawley rat at 1 mg/kg, po measured up to 24 hrs by HPLC analysis; type: ADME, organism-based; conditions: in vivo
[11] = Cmax in Sprague-Dawley rat at 1 mg/kg, po measured up to 24 hrs by HPLC analysis; type: ADME, organism-based; set-up: dose 1 mg/kg, route oral; conditions: in vivo
[12] = Half-life in Sprague-Dawley rat at 4 mg/kg, iv measured up to 24 hrs by HPLC analysis; type: ADME, organism-based; conditions: in vivo
[13] = Half-life in Sprague-Dawley rat at 1 mg/kg, po measured up to 24 hrs by HPLC analysis; type: ADME, organism-based; conditions: in vivo
[14] = Clearance in Sprague-Dawley rat at 4 mg/kg, iv measured up to 24 hrs by HPLC analysis; type: ADME, organism-based; conditions: in vivo
[15] = Volume of distribution at steady state in Sprague-Dawley rat at 4 mg/kg, iv measured up to 24 hrs by HPLC analysis; type: ADME, organism-based; conditions: in vivo, read-out: Vdss
[16] = Oral bioavailability in Sprague-Dawley rat at 1 mg/kg measured up to 24 hrs by HPLC analysis; type: ADME, organism-based; conditions: in vivo
Rattus norvegicus [17] = assay: Antihypertensive activity in spontaneously hypertensive rat assessed as reduction in mean arterial pressure at 20 mg/kg administered via single gavage and measured at 2 hrs; type: functional, organism-based
Rattus norvegicus [18] = assay: Antihypertensive activity in spontaneously hypertensive rat assessed as reduction in mean arterial pressure at 20 mg/kg administered via single gavage and measured at 4 hrs; type: functional, organism-based
Rattus norvegicus [19] = assay: Antihypertensive activity in spontaneously hypertensive rat assessed as reduction in mean arterial pressure at 20 mg/kg administered via single gavage after 6 hrs; type: functional, organism-based
Rattus norvegicus [20] = assay: […] activity in MCT-induced pulmonary arterial hypertension Sprague-Dawley rat model assessed as reduction in mean pulmonary artery pressure at 1 mg/kg administered once daily for 21 days starting from 21 days post-MCT challenge by right cardiac catheter method; type: functional, organism-based
Rattus norvegicus [21] = assay: […] activity in MCT-induced pulmonary arterial hypertension Sprague-Dawley rat model assessed as reduction in mean pulmonary artery pressure at 25 mg/kg administered once daily for 21 days starting from 21 days post-MCT challenge by right cardiac catheter method; type: functional, organism-based
Rattus norvegicus [22] = assay: […] activity in MCT-induced pulmonary arterial hypertension Sprague-Dawley rat model assessed as reduction in mean pulmonary artery pressure at 100 mg/kg administered once daily for 21 days starting from 21 days post-MCT challenge by right cardiac catheter method; type: functional, organism-based

High affinity cAMP-specific and IBMX-insensitive 3',5'-cyclic phosphodiesterase 8A, sequence (O60658 whole entry): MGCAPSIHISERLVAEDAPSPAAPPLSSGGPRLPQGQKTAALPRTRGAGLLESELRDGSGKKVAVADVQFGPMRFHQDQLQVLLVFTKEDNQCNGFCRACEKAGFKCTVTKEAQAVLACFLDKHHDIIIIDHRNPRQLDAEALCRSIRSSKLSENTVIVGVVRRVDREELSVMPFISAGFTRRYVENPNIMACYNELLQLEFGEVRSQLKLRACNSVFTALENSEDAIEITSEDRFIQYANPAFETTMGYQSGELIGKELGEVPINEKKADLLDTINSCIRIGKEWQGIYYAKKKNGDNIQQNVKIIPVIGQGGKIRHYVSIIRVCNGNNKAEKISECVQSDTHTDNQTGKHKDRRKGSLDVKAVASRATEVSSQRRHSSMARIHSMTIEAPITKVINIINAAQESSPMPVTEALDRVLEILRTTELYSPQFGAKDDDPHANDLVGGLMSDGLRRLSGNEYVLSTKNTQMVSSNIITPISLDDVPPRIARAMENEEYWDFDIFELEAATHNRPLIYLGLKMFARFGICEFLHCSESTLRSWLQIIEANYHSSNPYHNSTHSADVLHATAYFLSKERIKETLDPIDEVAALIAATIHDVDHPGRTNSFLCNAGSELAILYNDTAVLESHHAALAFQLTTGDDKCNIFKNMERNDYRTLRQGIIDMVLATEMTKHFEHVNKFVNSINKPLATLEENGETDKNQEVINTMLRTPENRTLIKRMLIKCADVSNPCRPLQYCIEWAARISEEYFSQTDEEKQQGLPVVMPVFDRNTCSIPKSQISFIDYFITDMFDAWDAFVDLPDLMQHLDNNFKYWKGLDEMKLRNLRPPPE
cGMP-dependent 3',5'-cyclic phosphodiesterase, sequence (O00408 whole entry): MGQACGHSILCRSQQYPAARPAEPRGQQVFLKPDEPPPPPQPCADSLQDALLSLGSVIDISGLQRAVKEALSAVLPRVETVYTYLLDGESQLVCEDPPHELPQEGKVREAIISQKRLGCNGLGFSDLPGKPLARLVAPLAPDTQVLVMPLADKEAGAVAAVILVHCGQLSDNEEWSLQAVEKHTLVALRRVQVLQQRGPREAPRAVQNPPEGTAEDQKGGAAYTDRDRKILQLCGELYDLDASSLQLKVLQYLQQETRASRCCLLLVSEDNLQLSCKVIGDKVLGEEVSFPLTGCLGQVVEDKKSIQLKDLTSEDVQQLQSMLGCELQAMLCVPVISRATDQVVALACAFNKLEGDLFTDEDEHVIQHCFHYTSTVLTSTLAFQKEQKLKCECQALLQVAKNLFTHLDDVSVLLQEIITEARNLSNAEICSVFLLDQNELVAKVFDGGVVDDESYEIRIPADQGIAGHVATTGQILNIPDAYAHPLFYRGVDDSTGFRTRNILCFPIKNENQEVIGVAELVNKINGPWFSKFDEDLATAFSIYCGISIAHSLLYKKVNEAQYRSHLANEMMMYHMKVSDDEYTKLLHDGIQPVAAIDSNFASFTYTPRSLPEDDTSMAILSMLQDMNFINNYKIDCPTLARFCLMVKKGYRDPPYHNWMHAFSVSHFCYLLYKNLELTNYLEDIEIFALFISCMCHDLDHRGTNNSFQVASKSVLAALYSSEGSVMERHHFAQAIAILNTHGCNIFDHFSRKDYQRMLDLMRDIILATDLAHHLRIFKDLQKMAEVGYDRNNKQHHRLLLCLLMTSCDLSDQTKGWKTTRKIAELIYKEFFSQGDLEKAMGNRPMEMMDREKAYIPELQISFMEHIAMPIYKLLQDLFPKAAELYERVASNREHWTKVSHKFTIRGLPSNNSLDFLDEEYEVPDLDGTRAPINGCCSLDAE
cAMP and cAMP-inhibited cGMP 3',5'-cyclic phosphodiesterase 10A, sequence (Q9Y233 whole entry): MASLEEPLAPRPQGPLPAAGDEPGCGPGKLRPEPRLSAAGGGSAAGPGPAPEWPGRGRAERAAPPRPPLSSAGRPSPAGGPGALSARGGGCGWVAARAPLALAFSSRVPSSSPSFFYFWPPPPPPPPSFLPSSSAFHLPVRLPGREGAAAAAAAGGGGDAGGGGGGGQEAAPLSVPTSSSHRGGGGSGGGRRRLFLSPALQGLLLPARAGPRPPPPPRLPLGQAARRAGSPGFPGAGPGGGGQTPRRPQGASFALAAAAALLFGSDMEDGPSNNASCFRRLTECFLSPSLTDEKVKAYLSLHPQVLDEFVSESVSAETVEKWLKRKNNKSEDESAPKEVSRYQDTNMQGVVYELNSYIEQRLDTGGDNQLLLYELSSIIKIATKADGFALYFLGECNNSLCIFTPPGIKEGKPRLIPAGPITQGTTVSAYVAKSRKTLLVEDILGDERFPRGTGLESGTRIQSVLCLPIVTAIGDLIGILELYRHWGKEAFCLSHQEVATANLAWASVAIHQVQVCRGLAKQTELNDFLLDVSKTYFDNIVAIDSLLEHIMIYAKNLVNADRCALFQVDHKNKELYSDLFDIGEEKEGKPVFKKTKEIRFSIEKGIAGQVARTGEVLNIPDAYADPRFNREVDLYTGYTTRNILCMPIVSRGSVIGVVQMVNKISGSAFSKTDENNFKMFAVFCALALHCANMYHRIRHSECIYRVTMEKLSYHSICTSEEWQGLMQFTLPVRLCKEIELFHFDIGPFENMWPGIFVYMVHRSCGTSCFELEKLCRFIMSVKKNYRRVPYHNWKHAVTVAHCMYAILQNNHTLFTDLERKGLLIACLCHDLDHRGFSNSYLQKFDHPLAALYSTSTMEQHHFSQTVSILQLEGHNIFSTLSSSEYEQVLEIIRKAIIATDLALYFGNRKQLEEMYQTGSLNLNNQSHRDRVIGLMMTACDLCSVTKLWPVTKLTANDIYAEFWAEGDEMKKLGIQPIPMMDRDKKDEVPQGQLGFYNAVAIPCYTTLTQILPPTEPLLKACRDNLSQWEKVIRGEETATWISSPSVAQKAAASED
High affinity cGMP-specific 3',5'-cyclic phosphodiesterase 9A, sequence (O76083 whole entry): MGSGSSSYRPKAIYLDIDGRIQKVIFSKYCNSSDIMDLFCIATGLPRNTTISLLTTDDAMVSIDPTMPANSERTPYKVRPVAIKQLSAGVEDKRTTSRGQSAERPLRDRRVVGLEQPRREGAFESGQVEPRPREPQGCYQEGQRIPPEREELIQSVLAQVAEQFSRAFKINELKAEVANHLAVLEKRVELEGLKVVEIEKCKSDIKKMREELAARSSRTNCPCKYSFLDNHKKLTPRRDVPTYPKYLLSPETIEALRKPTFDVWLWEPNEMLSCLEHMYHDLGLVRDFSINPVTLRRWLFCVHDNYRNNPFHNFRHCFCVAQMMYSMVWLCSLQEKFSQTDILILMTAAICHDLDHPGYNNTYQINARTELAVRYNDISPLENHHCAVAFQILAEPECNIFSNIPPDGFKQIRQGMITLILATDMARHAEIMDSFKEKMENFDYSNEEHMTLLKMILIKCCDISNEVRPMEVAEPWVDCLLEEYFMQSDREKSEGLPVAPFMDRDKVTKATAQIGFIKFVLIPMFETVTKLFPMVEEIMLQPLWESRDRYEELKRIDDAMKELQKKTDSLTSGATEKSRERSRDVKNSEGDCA

Question: Which Ratio IC50 (Homo sapiens) does the source give for `CCCOc1ccc(NC(N)=O)cc1-c1nc(CC)c(CC)c(=O)[nH]1` here?
Answer: 17

Question: For `CCCOc1ccc(NC(=O)C(=O)N2CCN(C)CC2)cc1-c1nc(CC)c(CC)c(=O)[nH]1`, which IC50 [1] is on record?
Answer: 1.55 nM

Question: And the Ratio IC50 (Homo sapiens)?
Answer: 17

Question: Which IC50 [1] does the source give for `CCCOc1ccc(S(=O)(=O)N2CCC[C@H]2C(=O)O)cc1-c1nc(CC)c(CC)c(=O)[nH]1` here?
Answer: 2.02 nM

Question: And the Ratio IC50 (Homo sapiens)?
Answer: 20

Question: With `CCCOc1ccc(NC(=O)CCCNC(C)=O)cc1-c1nc(CC)c(CC)c(=O)[nH]1` as the molecule, how does the Ratio IC50 (Homo sapiens) read?
Answer: 7

Question: With `CN1CC(=O)N2[C@H](c3ccc4c(c3)OCO4)c3[nH]c4ccccc4c3C[C@@H]2C1=O` as the molecule, how does the IC50 (Phosphodiesterase 1) read?
Answer: > 10000 nM

Question: What about the IC50 [2] of the same molecule?
Answer: > 10000 nM

Question: What about the IC50 (Phosphodiesterase 3) of the same molecule?
Answer: > 10000 nM

Question: What about the IC50 (Phosphodiesterase 7) of the same molecule?
Answer: > 10000 nM

Question: What about the IC50 [3] of the same molecule?
Answer: > 10000 nM

Question: What about the IC50 [4] of the same molecule?
Answer: > 10000 nM

Question: What about the IC50 [5] of the same molecule?
Answer: > 10000 nM

Question: What about the CL [6] of the same molecule?
Answer: 5.17 mL/min/kg

Question: What about the Vdss [7] of the same molecule?
Answer: 5.2 L/kg

Question: Which IC50 [1] does the source give for `CCCOc1ccc(S(=O)(=O)NCCC(=O)O)cc1-c1nc(CC)c(CC)c(=O)[nH]1` here?
Answer: 1.69 nM

Question: And the Activity (Rattus norvegicus [8])?
Answer: inactive

Question: What about the Ratio IC50 (Homo sapiens) of the same molecule?
Answer: 86

Question: And the remaining at 0.5 h, 1 µM [9]?
Answer: 100%

Question: Which IC50 [1] does the source give for `CCCOc1ccc(NC(=O)[C@@H]2CCCN2C(C)=O)cc1-c1nc(CC)c(CC)c(=O)[nH]1` here?
Answer: 0.54 nM

Question: What about the Ratio IC50 (Homo sapiens) of the same molecule?
Answer: 10

Question: Which Ratio IC50 (Homo sapiens) does the source give for `CCCOc1ccc(NC(=O)N2CCCC2)cc1-c1nc(CC)c(CC)c(=O)[nH]1` here?
Answer: 11

Question: With `CCCc1nn(C)c2c(=O)[nH]c(-c3cc(S(=O)(=O)N4CCN(C)CC4)ccc3OCC)nc12` as the molecule, how does the Tmax [10] read?
Answer: 1.6 h

Question: And the Cmax [11]?
Answer: 76 ng/mL

Question: And the half-life [12]?
Answer: 1.1 h

Question: And the half-life [13]?
Answer: 0.65 h

Question: And the clearance [14]?
Answer: 30.5 mL/min/kg

Question: And the Vd [15]?
Answer: 1.6 L/kg

Question: What about the bioavailability [16] of the same molecule?
Answer: 34%

Question: What about the Activity (Rattus norvegicus [17]) of the same molecule?
Answer: Active

Question: What about the Activity (Rattus norvegicus [18]) of the same molecule?
Answer: inactive

Question: What about the Activity (Rattus norvegicus [19]) of the same molecule?
Answer: inactive

Question: And the Activity (Rattus norvegicus [20])?
Answer: Active

Question: What about the Activity (Rattus norvegicus [21]) of the same molecule?
Answer: Active

Question: What about the Activity (Rattus norvegicus [22]) of the same molecule?
Answer: Active
